Results as given in ChEMBL document CHEMBL5335781, “Discovery of quinazolin-4-one-based non-covalent inhibitors targeting the severe acute respiratory syndrome coronavirus 2 main protease (SARS-CoV-2 Mpro)” (Eur J Med Chem, 2023).
Converted amounts (≈) assume the structure as drawn. The source made the active and inactive calls. No cut-off for these calls is given here.

How the values were obtained:
Vero C1008 = assay: Cytotoxicity against african green monkey Vero E6 cells by CCK-8 assay; assay type: toxicity, cell-based; conditions: chlorocebus sabaeus
[1] = biological target: Replicase polyprotein 1ab (Severe acute respiratory syndrome coronavirus 2) (UniProt P0DTD1); conditions: time 30.0 min
[2] = Plasma protein binding in human assessed as unbound fraction; assay type: ADME, cell-free
[3] = Kinetic solubility in phosphate buffer solution at pH 7.4; assay type: physicochemical; conditions: read-out: Kinetic_solubility
[4] = Metabolic stability in human liver microsomes assessed as half life; assay type: ADME, Microsome
[5] = Metabolic stability in human liver microsomes assessed as intrinsic clearance; assay type: ADME, Microsome
Prothrombin = Prothrombin (Homo sapiens, UniProt P00734); assay: Inhibition of human Thrombin using fluorogenic substrate by FRET-based assay
Procathepsin L = Procathepsin L (Homo sapiens, UniProt P07711); assay: Inhibition of human Cathepsin L using fluorogenic substrate by FRET-based assay
Cathepsin B = Cathepsin B (Homo sapiens, UniProt P07858); assay: Inhibition of human Cathepsin B using fluorogenic substrate by FRET-based assay
Caspase-2 = biological target: T1, Caspase-2 (Homo sapiens, UniProt P42575); assay: Inhibition of human Caspase 2 using fluorogenic substrate by FRET-based assay
T1 sequence (P42575 whole entry): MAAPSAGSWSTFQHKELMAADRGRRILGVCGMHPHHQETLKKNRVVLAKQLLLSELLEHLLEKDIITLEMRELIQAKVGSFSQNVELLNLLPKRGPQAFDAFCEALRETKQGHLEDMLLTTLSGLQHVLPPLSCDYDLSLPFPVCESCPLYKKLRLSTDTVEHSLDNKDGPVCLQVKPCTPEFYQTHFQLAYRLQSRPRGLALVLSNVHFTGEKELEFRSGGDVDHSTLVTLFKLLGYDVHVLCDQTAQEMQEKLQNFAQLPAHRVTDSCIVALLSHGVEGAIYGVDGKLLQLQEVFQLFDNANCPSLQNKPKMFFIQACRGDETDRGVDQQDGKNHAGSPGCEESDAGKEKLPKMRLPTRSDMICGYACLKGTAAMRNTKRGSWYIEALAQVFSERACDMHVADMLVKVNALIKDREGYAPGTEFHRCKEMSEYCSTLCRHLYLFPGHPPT

Cathepsin D = Cathepsin D (Homo sapiens, UniProt P07339); assay: Inhibition of human Cathepsin D using fluorogenic substrate by FRET-based assay
Cathepsin D, sequence (P07339 65-162 limits assumed): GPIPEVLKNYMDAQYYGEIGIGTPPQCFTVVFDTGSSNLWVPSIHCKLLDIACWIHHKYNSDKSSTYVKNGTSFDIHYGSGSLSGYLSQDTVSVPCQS
Cathepsin D, sequence (P07339 169-412 limits assumed): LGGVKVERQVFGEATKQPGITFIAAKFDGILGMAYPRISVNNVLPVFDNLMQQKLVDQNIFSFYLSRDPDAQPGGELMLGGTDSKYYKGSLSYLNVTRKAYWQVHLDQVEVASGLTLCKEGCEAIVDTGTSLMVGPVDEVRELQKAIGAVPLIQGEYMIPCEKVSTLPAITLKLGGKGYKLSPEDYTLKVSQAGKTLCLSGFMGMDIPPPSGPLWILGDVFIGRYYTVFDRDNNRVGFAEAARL

Procathepsin L, sequence (P07711 whole entry): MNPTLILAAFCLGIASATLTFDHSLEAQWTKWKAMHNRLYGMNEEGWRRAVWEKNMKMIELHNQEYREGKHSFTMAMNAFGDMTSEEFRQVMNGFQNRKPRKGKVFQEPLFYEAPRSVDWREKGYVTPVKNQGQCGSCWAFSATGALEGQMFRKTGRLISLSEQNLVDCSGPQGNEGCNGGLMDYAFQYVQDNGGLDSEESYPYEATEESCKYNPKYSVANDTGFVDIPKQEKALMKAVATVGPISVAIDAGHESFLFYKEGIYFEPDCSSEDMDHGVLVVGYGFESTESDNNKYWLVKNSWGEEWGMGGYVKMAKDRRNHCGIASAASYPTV

Row | Compound | CC50 (Vero C1008) | inhibition [1] | Fu [2] | solubility kinetic [3] | t1/2 [4] | CLH [5] | IC50 (Prothrombin) | IC50 (Procathepsin L) | IC50 (Cathepsin B) | IC50 (Caspase-2) | IC50 (Cathepsin D)
1 | Cc1cc(-n2c(CC(C)C)nc3cc(O)c(O)c(O)c3c2=O)ccc1F | > 50 µM | Active | 3.17% | – | – | – | – | – | – | – | –
2 | O=c1c2c(O)c(O)c(O)cc2nc(-c2ccccc2)n1C1CCCC1 | – | Active | – | – | – | – | – | – | – | – | –
3 | CC(C)Cc1nc2cc(O)c(O)c(O)c2c(=O)n1-c1ccccc1 | > 50 µM | Active | 2.61% | 156 µM (≈ 50.9 µg/mL) | 20.28 min | 68.34 µL/min/mg | – | – | – | – | –
4 | O=c1cc(-c2ccccc2)oc2cc(O)c(O)c(O)c12 [BAICALEIN] | > 50 µM | – | 0.93% | 112 µM (≈ 30.3 µg/mL) | 4.16 min | 333.05 µL/min/mg | – | – | – | – | –
5 | O=c1c2c(O)c(O)c(O)cc2nc(-c2ccccc2)n1-c1ccccc1 | > 50 µM | Active | 0.7% | 179 µM (≈ 62.1 µg/mL) | 12.75 min | 108.68 µL/min/mg | > 10 µM | > 10 µM | > 10 µM | > 10 µM | > 10 µM
6 | O=c1c2c(O)c(O)c(O)cc2nc(Cc2ccccc2)n1-c1ccccc1 | – | Active | – | – | – | – | – | – | – | – | –
